The test system of data set [1] is Candida albicans. Briefly: Antifungal activity against Candida albicans CAAL93 assessed as reduction in fungal growth. The format is functional, organism-based.
In the next data set the test system is Aspergillus fumigatus. Put plainly: Antifungal activity against Aspergillus fumigatus ASFU76 assessed as reduction in fungal growth after. The format is functional, organism-based.
The test system of data set [2] is Plasmodium falciparum. Briefly: Antimalarial activity against Plasmodium falciparum 3D7 assessed as inhibition of parasite growth. Format: functional, organism-based.
Data set [3] deals with Leishmania donovani. Briefly: Antileishmanial activity against axenic amastigote form of Leishmania donovani LV9 assessed as reduction in parasite growth. The format is functional, organism-based.
Data set [4] deals with Leishmania donovani. Put plainly: Antileishmanial activity against intramacrophage form of Leishmania donovani LV9 assessed as reduction in parasite growth. Format: functional, organism-based.
A short description of data set [5]: Cytotoxicity against HUVEC cells assessed as reduction in cell viability. The format is cell-based. The conditions noted are these: human.
Data set [6] can be described thus: Selectivity index, ratio of CC50 for cytotoxicity against HUVEC cells to IC50 for antiplasmodial activity against Plasmodium falciparum 3D7. The format is toxicity, cell-based. As to conditions: human, read-out: Ratio CC50/IC50.
The nature of data set [7]: Selectivity index, ratio of CC50 for cytotoxicity against HUVEC cells to IC50 for antileishmanial activity against axenic amastigote form of Leishmania donovani LV9. The conditions noted are these: human, read-out: Ratio CC50/IC50. The format is toxicity, cell-based.
Data set [8] deals with Plasmodium falciparum. Put plainly: Antimalarial activity against Plasmodium falciparum. The format is functional, organism-based.
In data set [9] the test system is Candida albicans. Put plainly: Antifungal activity against wild type Candida albicans. Format: functional.

Values after ≈ are worked out from the molar mass of the structure shown. A value given as a limit tells only on which side of the number the result lay.

As for `CC(C)(C)C1CC(O)OO1` (mixture of isomers), the IC50 (usually the concentration that inhibits the measured activity by half) in the data set with Candida albicans [1] is over 100 µM; in the data set with Aspergillus fumigatus it was over 100 µM; in the data set with Plasmodium falciparum [2] it was 0.34 µM; with Leishmania donovani [3] it was over 100 µM; in the data set on Leishmania donovani [4], over 100 µM. For the same compound, the CC50 (commonly the concentration giving 50% cytotoxicity) in [5] turned out to be 12.2 µM. Besides, the selectivity ratio was 35 in data set [6] and under 0.12 in [7].

On to `C=C(C)CC1CC(CCCCCC)OO1` (mixture of isomers), for which the half-inhibitory concentration (IC50) was 35.7 µM with Candida albicans [1]; 35.7 µM in the data set on Aspergillus fumigatus; 0.17 µM in the data set on Plasmodium falciparum [2]; 6.82 µM with Leishmania donovani [3]; over 100 µM with Leishmania donovani [4]. Further, the CC50 in data set [5] stood at 11.7 µM. Further, the selectivity ratio was 68 in data set [6] and 1.71 in [7].

Consider `CCCCCCC1CC(CC(=O)c2ccccc2)OO1` (mixture of isomers), for which the IC50 is over 100 µM with Candida albicans [1], over 100 µM in the data set with Aspergillus fumigatus, 0.37 µM in the data set with Plasmodium falciparum [2] and over 100 µM with Leishmania donovani [3]. Further, the CC50 in data set [5] is 9.02 µM. In addition, the selectivity ratio was 24 in data set [6] and under 0.09 in data set [7].

Consider `CCCCCCC1CC(C/C=C\Br)OO1` (mixture of isomers), for which the IC50 in the data set with Candida albicans [1] is over 100 µM; in the data set on Aspergillus fumigatus, over 100 µM; in the data set with Plasmodium falciparum [2], over 1 µM; in the data set with Leishmania donovani [3], 1.55 µM; in the data set with Leishmania donovani [4] it was 33.6 µM. In [5], the CC50 is 2.29 µM. Besides, the selectivity ratio in [6] is under 2; in data set [7], 1.48.

Regarding `CCCCCCC1CC(O)OO1` (mixture of isomers), the IC50 is over 100 µM in the data set on Candida albicans [1]; over 100 µM in the data set on Aspergillus fumigatus; over 1 µM in the data set on Plasmodium falciparum [2]; over 100 µM with Leishmania donovani [3]; over 100 µM in the data set on Leishmania donovani [4]. The CC50 in data set [5] is 71.7 µM. Further, the selectivity ratio in data set [6] is under 71; in data set [7], under 0.72.

In the case of `CC(C)C1CC(O)OO1` (mixture of isomers), the IC50 was over 100 µM with Candida albicans [1]; over 100 µM in the data set with Aspergillus fumigatus; 0.12 µM in the data set on Plasmodium falciparum [2]; over 100 µM in the data set with Leishmania donovani [3]; over 100 µM in the data set on Leishmania donovani [4]. In [5], the CC50 came to 28.2 µM. Also, the selectivity ratio was 234 in data set [6] and under 0.28 in data set [7].

Consider `CC(=O)OC1CC(C(C)(C)C)OO1` (mixture of isomers), for which the half-maximal inhibitory concentration (IC50) with Candida albicans [1] is over 100 µM; with Aspergillus fumigatus it was over 100 µM; in the data set with Plasmodium falciparum [2], 0.02 µM; in the data set with Leishmania donovani [3], over 100 µM; in the data set on Leishmania donovani [4] it was 44.3 µM. Also, the CC50 in [5] worked out at 12.6 µM. Besides, the selectivity ratio was 628 in [6] and under 0.13 in [7].

For the compound `C[C@@H]1[C@H](O)[C@@H](C)/C=C/C=C/C=C/C=C/C=C/C=C/C=C/[C@H](O[C@@H]2O[C@H](C)[C@@H](O)[C@H](N)[C@@H]2O)C[C@@H]2O[C@](O)(C[C@@H](O)C[C@@H](O)[C@H](O)CC[C@@H](O)C[C@@H](O)CC(=O)O[C@H]1C)C[C@H](O)[C@H]2C(=O)O` [AMPHOTERICIN B], the IC50 with Aspergillus fumigatus came to 0.33 µM.

`CC(=O)OC1CC(C2CCCCC2)OO1` (mixture of isomers): the IC50 with Candida albicans [1] is over 100 µM; in the data set on Aspergillus fumigatus, over 100 µM; with Plasmodium falciparum [2], over 1 µM; in the data set on Leishmania donovani [3] it was 56.6 µM.

`C=CCC1CC(CCCCCC)OO1` (mixture of isomers): the IC50 is 25.2 µM in the data set with Candida albicans [1], over 100 µM in the data set on Aspergillus fumigatus, 0.1 µM with Plasmodium falciparum [2] and over 100 µM with Leishmania donovani [3]. The CC50 in data set [5] was determined as 0.7 µM. Moreover, the selectivity ratio in data set [6] was 7; in data set [7], under 0.01.

With `CCCCCCCCCCCCCCC[C@H]1C[C@@H](CCO)OO1` (mixture of isomers), the concentration for half-maximal inhibition (IC50) is over 100 µM in the data set with Candida albicans [1], over 100 µM with Aspergillus fumigatus, over 1 µM in the data set on Plasmodium falciparum [2] and 5.57 µM in the data set with Leishmania donovani [3].

As for `CCCCCCC1CC(C#N)OO1` (mixture of isomers), the IC50 in the data set on Candida albicans [1] was over 100 µM; in the data set with Aspergillus fumigatus, over 100 µM; with Plasmodium falciparum [2], over 1 µM; in the data set on Leishmania donovani [3], 42.9 µM; in the data set with Leishmania donovani [4] it was over 100 µM. The CC50 in data set [5] is 10.9 µM. The selectivity ratio in data set [6] is under 10; in [7], 0.26.

Regarding `C=CCC1CC(CCO[Si](c2ccccc2)(c2ccccc2)C(C)(C)C)OO1` (mixture of isomers), the IC50 in the data set on Candida albicans [1] was over 100 µM; in the data set on Aspergillus fumigatus it was over 100 µM; in the data set on Plasmodium falciparum [2], over 1 µM; in the data set with Leishmania donovani [3] it was over 100 µM.

On to `CC(=O)OC1CC(C(C)C)OO1` (mixture of isomers), for which the IC50 in the data set on Candida albicans [1] is over 100 µM; in the data set on Aspergillus fumigatus it was over 100 µM; in the data set on Plasmodium falciparum [2], 0.1 µM; in the data set on Leishmania donovani [3], over 100 µM; with Leishmania donovani [4] it was 32.9 µM. In addition, in data set [5], the CC50 is 59.3 µM. For the same compound, in data set [7], the selectivity ratio was under 0.59.

Take `CCCCCCC1CC(OC(C)=O)OO1` (mixture of isomers): the IC50 was over 100 µM with Candida albicans [1]; over 100 µM in the data set with Aspergillus fumigatus; over 1 µM in the data set with Plasmodium falciparum [2]; 70.7 µM in the data set on Leishmania donovani [3]; over 100 µM with Leishmania donovani [4]. Also, the cytotoxic concentration (CC50) in [5] was 57.8 µM. For the same compound, the selectivity ratio in data set [6] is under 57; in [7], 0.82.

Regarding `CCCCCCC1CCOO1` (configuration not stated), the IC50 with Candida albicans [1] was over 100 µM; in the data set on Aspergillus fumigatus, over 100 µM; with Plasmodium falciparum [2], over 1 µM; with Leishmania donovani [3], 49.8 µM. In addition, the CC50 in [5] came to 10.6 µM. Besides, the selectivity ratio in data set [6] was under 10.6; in data set [7], 0.2.

`C=CCC1CC(C2CCCCC2)OO1` (mixture of isomers): the IC50 was over 100 µM in the data set on Candida albicans [1], over 100 µM in the data set on Aspergillus fumigatus, over 1 µM in the data set with Plasmodium falciparum [2] and 6.78 µM with Leishmania donovani [3].

`CCCCCCC1CC(C/C=C\Cl)OO1` (mixture of isomers): the 50% inhibitory concentration (IC50) in the data set on Candida albicans [1] is 33.4 µM; in the data set on Aspergillus fumigatus, over 100 µM; in the data set on Plasmodium falciparum [2], 0.15 µM; in the data set with Leishmania donovani [3] it was 1.5 µM; in the data set on Leishmania donovani [4], 28.4 µM. In data set [5], the CC50 turned out to be 6.13 µM. For the same compound, the selectivity ratio in [6] stood at 40; in [7], 4.09.

Take `CCCCCCC1CC(CC(=O)C(C)(C)C)OO1` (mixture of isomers): the IC50 is over 100 µM in the data set with Candida albicans [1]; over 100 µM with Aspergillus fumigatus; over 1 µM in the data set with Plasmodium falciparum [2]; 4.42 µM in the data set with Leishmania donovani [3]; over 100 µM in the data set with Leishmania donovani [4]. The CC50 in data set [5] was 6.09 µM. Besides, the figures for the selectivity ratio in data set [6] and in [7] were under 6 and 1.38, respectively.

Turning to `CCCCCCC1CC(CC(=O)SCC)OO1` (mixture of isomers), the half-maximal inhibitory concentration (IC50) in the data set on Candida albicans [1] is over 100 µM; with Aspergillus fumigatus, over 100 µM; in the data set on Plasmodium falciparum [2] it was 0.25 µM; in the data set with Leishmania donovani [3], 1.88 µM; in the data set on Leishmania donovani [4] it was 38.9 µM. In [5], the 50% cytotoxic concentration (CC50) turned out to be 1.89 µM. Besides, the selectivity ratio in [6] stood at 7; in data set [7] it was 1.01.

For the compound `CCCCCCC1CC(CC(=O)Sc2ccccc2)OO1` (mixture of isomers), the IC50 in the data set on Candida albicans [1] was over 100 µM; in the data set with Aspergillus fumigatus it was over 100 µM; in the data set on Plasmodium falciparum [2], over 1 µM; in the data set on Leishmania donovani [3], 2.2 µM; in the data set on Leishmania donovani [4] it was over 100 µM. Also, the half-maximal cytotoxic concentration (CC50) in data set [5] was 1.82 µM. Moreover, the selectivity ratio in data set [6] is under 1.8; in data set [7], 0.83.

Take `C=C/C=C/C=C\C=C\C=C\C=C/C=C\C[C@H]1C[C@@H](CC(=O)O)OO1`: it took 0.052 µM to reach a half-maximal effect with Plasmodium falciparum [8] (EC50). In addition, in the data set on Candida albicans [9], inhibition of growth (MIC) required 0.61 µM (≈ 0.2 µg/mL).

In the case of `CCN(CC)CCCC(C)Nc1ccnc2cc(Cl)ccc12` (configuration not stated) [CHLOROQUINE], the CC50 in data set [5] is 31.5 µM.

For `CC(=O)OC1CC(CCO[Si](c2ccccc2)(c2ccccc2)C(C)(C)C)OO1` (mixture of isomers), the half-maximal inhibitory concentration (IC50) is over 100 µM in the data set on Candida albicans [1], over 100 µM in the data set with Aspergillus fumigatus, over 1 µM in the data set on Plasmodium falciparum [2] and over 100 µM with Leishmania donovani [3].

For the compound `CCCCCCCCCCCCCCC[C@H]1C[C@@H](CC(=O)O)OO1`, the half-inhibitory concentration (IC50) in the data set with Candida albicans [1] was over 100 µM; with Aspergillus fumigatus, over 100 µM; in the data set on Plasmodium falciparum [2], over 1 µM; in the data set on Leishmania donovani [3], 6.16 µM.

For the compound `OC(Cn1cncn1)(Cn1cncn1)c1ccc(F)cc1F` [FLUCONAZOLE], in the data set on Candida albicans [1], the half-maximal inhibitory concentration (IC50) came out at 0.3 µM.

With `CCCCCCCCCCCCCCCCOP(=O)([O-])OCC[N+](C)(C)C` [MILTEFOSINE], the values for the IC50 in the data set with Leishmania donovani [3] and with Leishmania donovani [4] were 1.7 µM and 0.61 µM, respectively. In data set [5], the CC50 was 54.3 µM. The selectivity ratio in [7] came to 32.
